Experimental data: ChEMBL document CHEMBL1201862, “PubChem BioAssay data set” (2004)
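Cells were grown in 96-well plates and exposed to each compound for 48 hours at five concentrations; endpoints were interpolated linearly between bracketing concentrations, or set to the highest concentration if not reached. The concentration for 50% growth inhibition is given as GI50.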 Active and inactive are the calls of the source. No stated cut-off is given here; in the data, active = GI50 up to about 1.1 µM and inactive = higher.

Assays:
Assay in all cases: NCI anticancer screen, dose series, 48 h
MDA-MB-435 = test system: MDA-MB-435
OVCAR-4 = test system: OVCAR-4
SR = test system: SR
NCI/ADR-RES = test system: NCI/ADR-RES
MDA-MB-231 = test system: MDA-MB-231
OVCAR-3 = test system: OVCAR-3
IGROV-1 = test system: IGROV-1
MDA-N = test system: MDA-N
NCI-H522 = test system: NCI-H522
RXF 393 = test system: RXF 393
HOP-62 = test system: HOP-62
A549 = test system: A549
NCI-H460 = test system: NCI-H460
CAKI-1 = test system: CAKI-1
HL-60 = test system: HL-60
SF-268 = test system: SF-268
786-0 = test system: 786-0
UACC-62 = test system: UACC-62
CCRF-CEM = test system: CCRF-CEM
SK-OV-3 = test system: SK-OV-3

Compound	GI50 (MDA-MB-435)	GI50 (OVCAR-4)	GI50 (SR)	GI50 (NCI/ADR-RES)	GI50 (MDA-MB-231)	GI50 (OVCAR-3)	GI50 (IGROV-1)	GI50 (MDA-N)	GI50 (NCI-H522)	GI50 (RXF 393)	GI50 (HOP-62)	GI50 (A549)	GI50 (NCI-H460)	GI50 (CAKI-1)	GI50 (HL-60)	GI50 (SF-268)	GI50 (786-0)	GI50 (UACC-62)	GI50 (CCRF-CEM)	GI50 (SK-OV-3)
CC1(C)C2CCC1(C)[C@H](n1c(=O)n([C@@H]3CC4CCC3(C)C4(C)C)c(=O)n([C@@H]3CC4CCC3(C)C4(C)C)c1=O)C2	76.7 µM (inactive)	> 100 µM (inactive)	71.4 µM (inactive)	> 100 µM (inactive)	45.5 µM (inactive)	35.4 µM (inactive)	65.6 µM (inactive)	68.4 µM (inactive)	37.4 µM (inactive)	19.8 µM (inactive)	44.4 µM (inactive)	31.8 µM (inactive)	31.2 µM (inactive)	66.7 µM (inactive)	23.9 µM (inactive)	41.6 µM (inactive)	28 µM (inactive)			
O=[N+]([O-])c1ccc2c(c1)n1c(N3CCCC3)[n+]3ccccc3c1c1c3ccccn3c(N3CCCC3)[n+]21.[O-][Cl+3]([O-])([O-])[O-].[O-][Cl+3]([O-])([O-])[O-]	> 100 µM (inactive)	> 100 µM (inactive)	> 100 µM (inactive)	> 100 µM (inactive)	> 100 µM (inactive)	> 100 µM (inactive)	> 100 µM (inactive)	> 100 µM (inactive)	29 µM (inactive)	> 100 µM (inactive)		> 100 µM (inactive)	> 100 µM (inactive)	> 100 µM (inactive)	32 µM (inactive)	17.5 µM (inactive)	> 100 µM (inactive)	> 100 µM (inactive)	21.1 µM (inactive)	
Cc1cccc(/C=N/NC(=S)N2CCCC2)n1	0.493 µM (active)	0.195 µM (active)	0.0509 µM (active)	0.166 µM (active)	0.133 µM (active)	0.0255 µM (active)	0.822 µM (active)	0.417 µM (active)	0.0458 µM (active)		0.209 µM (active)	0.514 µM (active)	0.337 µM (active)	0.197 µM (active)	0.0559 µM (active)	0.251 µM (active)	0.199 µM (active)	0.296 µM (active)	< 0.01 µM (active)	
COc1cc([C@H]2c3cc(O)c(OC)cc3C[C@]3(O)[C@@H]2CO[C@@H]3O)ccc1O	> 100 µM (inactive)	> 100 µM (inactive)	> 100 µM (inactive)	> 100 µM (inactive)	> 100 µM (inactive)	> 100 µM (inactive)	> 100 µM (inactive)	> 100 µM (inactive)	> 100 µM (inactive)		> 100 µM (inactive)	> 100 µM (inactive)	> 100 µM (inactive)	> 100 µM (inactive)	> 100 µM (inactive)	> 100 µM (inactive)	> 100 µM (inactive)	> 100 µM (inactive)	> 100 µM (inactive)	> 100 µM (inactive)
O=C(NCc1cccnc1)C(=O)NCc1cccnc1	> 100 µM (inactive)	> 100 µM (inactive)	81.1 µM (inactive)	> 100 µM (inactive)	> 100 µM (inactive)	> 100 µM (inactive)	> 100 µM (inactive)	> 100 µM (inactive)	> 100 µM (inactive)	> 100 µM (inactive)	> 100 µM (inactive)	> 100 µM (inactive)	> 100 µM (inactive)	> 100 µM (inactive)	27.4 µM (inactive)	> 100 µM (inactive)	> 100 µM (inactive)	> 100 µM (inactive)		> 100 µM (inactive)
NS(=O)(=O)c1nnc(NC(=O)CCC(=O)O)s1	> 100 µM (inactive)	> 100 µM (inactive)	> 100 µM (inactive)	> 100 µM (inactive)	> 100 µM (inactive)	> 100 µM (inactive)		> 100 µM (inactive)	> 100 µM (inactive)	> 100 µM (inactive)	> 100 µM (inactive)	> 100 µM (inactive)	> 100 µM (inactive)	> 100 µM (inactive)	> 100 µM (inactive)	> 100 µM (inactive)	> 100 µM (inactive)	> 100 µM (inactive)		> 100 µM (inactive)
CCOc1ccc(N2C(=O)NC3(c4ccccc4)N(C)C(=O)N(C)C23c2ccccc2)cc1 (stereo not given)	> 100 µM (inactive)		> 100 µM (inactive)	63.1 µM (inactive)	83.6 µM (inactive)	> 100 µM (inactive)	> 100 µM (inactive)	62.4 µM (inactive)	33.9 µM (inactive)	66.4 µM (inactive)	> 100 µM (inactive)	56.8 µM (inactive)		> 100 µM (inactive)	75.2 µM (inactive)		> 100 µM (inactive)	86.3 µM (inactive)	> 100 µM (inactive)	> 100 µM (inactive)
CCCN(CCC)C1CCc2c(ccc3cc[nH]c23)C1 (stereo not given)	89.3 µM (inactive)	> 100 µM (inactive)	22.9 µM (inactive)	> 100 µM (inactive)	41.3 µM (inactive)	61.4 µM (inactive)	62.7 µM (inactive)	> 100 µM (inactive)	> 100 µM (inactive)	> 100 µM (inactive)	> 100 µM (inactive)	> 100 µM (inactive)	72.3 µM (inactive)	> 100 µM (inactive)		94.2 µM (inactive)	> 100 µM (inactive)	50.9 µM (inactive)	26.3 µM (inactive)	> 100 µM (inactive)
CN(CCc1ccc(Cl)c(Cl)c1)[C@H]1CCCC[C@H]1N1CCCC1	> 100 µM (inactive)	> 100 µM (inactive)	> 100 µM (inactive)	> 100 µM (inactive)	> 100 µM (inactive)	> 100 µM (inactive)	> 100 µM (inactive)	> 100 µM (inactive)	> 100 µM (inactive)	> 100 µM (inactive)	> 100 µM (inactive)	> 100 µM (inactive)		> 100 µM (inactive)	> 100 µM (inactive)	> 100 µM (inactive)	> 100 µM (inactive)	> 100 µM (inactive)		> 100 µM (inactive)
CCCN1C(=O)/C(=C\c2ccc(OC)c(OC)c2)S/C1=N\c1ccccc1	> 100 µM (inactive)	> 100 µM (inactive)	> 100 µM (inactive)	> 100 µM (inactive)	> 100 µM (inactive)	> 100 µM (inactive)	> 100 µM (inactive)	> 100 µM (inactive)	> 100 µM (inactive)		17.6 µM (inactive)	> 100 µM (inactive)	> 100 µM (inactive)	> 100 µM (inactive)	> 100 µM (inactive)	38.6 µM (inactive)	17.5 µM (inactive)	> 100 µM (inactive)	> 100 µM (inactive)	27.9 µM (inactive)
CC1(C)CC(=O)c2c(N)n[nH]c2C1	> 100 µM (inactive)	> 100 µM (inactive)	> 100 µM (inactive)	> 100 µM (inactive)	> 100 µM (inactive)	> 100 µM (inactive)	> 100 µM (inactive)	> 100 µM (inactive)	> 100 µM (inactive)	> 100 µM (inactive)	> 100 µM (inactive)	> 100 µM (inactive)	> 100 µM (inactive)	> 100 µM (inactive)	> 100 µM (inactive)		> 100 µM (inactive)	> 100 µM (inactive)	> 100 µM (inactive)	
